Laboratory results taken from BindingDB's records for doi:10.1021/jm100812a (Boehringer Ingelheim Pharma, 2010).
pEC50, pIC50: −log10 of the molar value.

Tests used:
[1] = target: Activin receptor-like kinase 1, ACVRL1 (Homo sapiens) (UniProt P37023); assay: Inhibition of ALK1
TGF-beta receptor type-1 [2] = target: T1, TGF-beta receptor type-1 (Homo sapiens, UniProt P36897); assay: Inhibition of TGFbeta receptor
T1 sequence (P36897 whole entry): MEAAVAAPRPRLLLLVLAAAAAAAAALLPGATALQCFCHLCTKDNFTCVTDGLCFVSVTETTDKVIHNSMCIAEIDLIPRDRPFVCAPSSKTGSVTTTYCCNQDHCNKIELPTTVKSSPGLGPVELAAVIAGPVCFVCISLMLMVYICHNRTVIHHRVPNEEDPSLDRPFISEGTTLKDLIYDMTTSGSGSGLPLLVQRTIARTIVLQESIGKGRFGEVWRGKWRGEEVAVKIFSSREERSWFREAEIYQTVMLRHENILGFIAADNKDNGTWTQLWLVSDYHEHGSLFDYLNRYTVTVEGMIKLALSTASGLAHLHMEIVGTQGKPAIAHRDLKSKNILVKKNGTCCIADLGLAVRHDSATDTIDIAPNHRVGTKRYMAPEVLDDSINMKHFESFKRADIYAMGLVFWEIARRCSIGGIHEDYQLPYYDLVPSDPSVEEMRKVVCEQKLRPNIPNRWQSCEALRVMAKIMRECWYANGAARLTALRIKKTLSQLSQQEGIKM

TGF-beta receptor type-1 [3] = target: T1, TGF-beta receptor type-1; assay: Inhibition of TGFbeta receptor in human HaCaT cells assessed as Smad phosphorylation by ELISA
[4] = target: Platelet-derived growth factor receptor alpha (Homo sapiens, UniProt P16234); assay: Inhibition of PDGFRalpha
Chain of Platelet-derived growth factor receptor alpha (P16234 whole entry): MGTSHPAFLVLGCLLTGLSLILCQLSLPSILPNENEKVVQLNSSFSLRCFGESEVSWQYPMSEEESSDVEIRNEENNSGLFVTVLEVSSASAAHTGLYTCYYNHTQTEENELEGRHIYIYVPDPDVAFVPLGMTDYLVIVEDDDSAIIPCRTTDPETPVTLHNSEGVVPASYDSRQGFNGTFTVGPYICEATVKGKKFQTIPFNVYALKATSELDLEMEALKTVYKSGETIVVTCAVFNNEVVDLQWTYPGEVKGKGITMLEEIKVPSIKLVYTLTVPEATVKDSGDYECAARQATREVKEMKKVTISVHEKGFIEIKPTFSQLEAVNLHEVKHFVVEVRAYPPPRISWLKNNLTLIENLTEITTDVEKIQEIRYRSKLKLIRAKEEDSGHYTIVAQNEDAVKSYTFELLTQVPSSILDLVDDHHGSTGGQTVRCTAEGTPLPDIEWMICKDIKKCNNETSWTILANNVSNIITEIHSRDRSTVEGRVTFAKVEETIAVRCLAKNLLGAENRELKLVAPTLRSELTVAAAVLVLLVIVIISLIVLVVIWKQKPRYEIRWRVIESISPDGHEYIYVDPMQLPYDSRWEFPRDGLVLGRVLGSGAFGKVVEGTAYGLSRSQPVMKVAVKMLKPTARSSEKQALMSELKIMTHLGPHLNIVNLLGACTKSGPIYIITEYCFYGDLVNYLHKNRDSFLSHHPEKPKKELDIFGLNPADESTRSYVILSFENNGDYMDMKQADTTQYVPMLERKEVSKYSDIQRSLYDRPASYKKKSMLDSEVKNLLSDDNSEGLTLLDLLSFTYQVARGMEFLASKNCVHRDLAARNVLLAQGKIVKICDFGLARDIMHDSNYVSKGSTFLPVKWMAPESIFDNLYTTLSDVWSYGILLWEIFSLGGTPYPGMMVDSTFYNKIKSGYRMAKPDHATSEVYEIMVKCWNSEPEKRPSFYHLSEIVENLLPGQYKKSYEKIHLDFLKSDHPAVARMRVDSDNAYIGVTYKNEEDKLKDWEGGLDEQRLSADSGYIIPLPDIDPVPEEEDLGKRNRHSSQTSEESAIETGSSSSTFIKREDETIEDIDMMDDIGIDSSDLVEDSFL

Chain of Activin receptor-like kinase 1, ACVRL1 (Homo sapiens) (P37023 whole entry, looked up): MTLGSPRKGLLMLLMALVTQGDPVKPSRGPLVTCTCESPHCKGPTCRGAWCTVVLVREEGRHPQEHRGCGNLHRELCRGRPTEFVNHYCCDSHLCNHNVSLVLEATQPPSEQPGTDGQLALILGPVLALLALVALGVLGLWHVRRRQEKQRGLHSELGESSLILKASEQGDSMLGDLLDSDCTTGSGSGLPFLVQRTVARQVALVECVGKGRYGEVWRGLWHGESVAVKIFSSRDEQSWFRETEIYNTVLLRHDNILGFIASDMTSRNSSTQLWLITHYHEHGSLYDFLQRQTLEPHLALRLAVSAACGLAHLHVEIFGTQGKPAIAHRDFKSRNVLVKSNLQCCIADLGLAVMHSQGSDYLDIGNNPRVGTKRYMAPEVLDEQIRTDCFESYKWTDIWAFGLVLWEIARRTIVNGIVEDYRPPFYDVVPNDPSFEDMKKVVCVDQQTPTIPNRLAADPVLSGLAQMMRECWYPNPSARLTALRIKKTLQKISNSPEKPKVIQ

pIC50 [1] | pIC50 (TGF-beta receptor type-1 [2]) | pEC50 (TGF-beta receptor type-1 [3]) | pIC50 [4] | SMILES
5.40 | – | – | – | CCN(C)C(=O)c1ccc2c(c1)NC(=O)/C2=C(\Nc1ccc(CN2CCCCC2)cc1)c1ccccc1
– | < 4.30 | < 5.00 | < 5.30 | CCN(C)C(=O)c1ccc2c(c1)NC(=O)C2C(=NC1CCCCC1)c1ccccc1 (configuration not stated) [(Z)-3-((cyclohexylamino)(phenyl)methylene)-N-ethyl-N-methyl-2-oxoindoline-6-carboxamide]
– | < 4.30 | < 5.00 | < 5.30 | CCN(C)C(=O)c1ccc2c(c1)NC(=O)C2C(=NC1CCN(C)CC1)c1ccccc1 (configuration not stated) [(Z)-N-ethyl-N-methyl-3-((1-methylpiperidin-4-ylamino)(phenyl)methylene)-2-oxoindoline-6-carboxamide]
